Laboratory results reported in patent publication US20230147942A1, “PHARMACEUTICAL COMPOSITION COMPRISING NEW LACTOBACILLUS PLANTARUM KC3 STRAIN AND LEONURUS JAPONICUS EXTRACT AS ACTIVE INGREDIENTS FOR PREVENTING OR TREATING RESPIRATORY DISEASE AND USE THEREOF” (KT&G CORPORATION, priority 2020, published 2023).
Where a SMILES comes first, the peptide text is derived from it. Bridges are numbered along the chain shown (N, C = ends). [ ]: non-standard residue; d: D form. The star is where a group is joined. Ileψ(thiazoline)Cys = CC[C@H](C)[C@H](N)C1=N[C@H](C(=O)*)CS1; dOrn = NCCC[C@@H](N)C(=O)O

What follows are molecules tested on Lactobacillus plantarum KC3 (assay: Antibiotic susceptibility of strain (antibiotic strips on LSM solid medium)). Conditions: 37° C., 24 hours.
Assay type: cell-based
Procedure: In order to confirm antibiotics resistance level of the new lactic acid bacteria from the of the Lactobacillus plantarum KC3 the present disclosure, an experiment was performed as follows by applying the method described in the document
To measure the antibiotics resistance level of the strain, an MIC test was carried out. Lactic acid bacteria that were inoculated into an MRS medium (DF0881-17-5, Difco) and cultured at 37° C. for 18 hours were spread on an LSM solid medium (90% iso-sensitest broth (CM0473, Oxoid), 10% MRS medium (DF0881-17-5, Difco), and 1.5% agar (214010, Difco)). Strips for each type of antibiotics, such as Amikacin (92018, Liofilchem srl), Gentamycin (92009, Liofilchem srl), Kanamycin (92034, Liofilchem srl), Streptomycin (92112, Liofilchem srl), Penicillin-G (92102, Liofilchem srl), Oxacillin (92015, Liofilchem srl), Ampicillin (920030, Liofilchem srl), Bacitracin (92019, Liofilchem srl), Rifampicin (92001, Liofilchem srl), Polymyxin B (92004, Liofilchem srl), Chloramphenico 1(92075, Liofilchem srl), Vancomycin (92057, Liofilchem srl), and the like, were put on the medium, and the bacteria were grown at 37° C. for 24 hours.
In Table 4, R indicates resistance and represents that the size of an inhibition zone is about 0 mm; IS indicates mediate resistance and represents that the size of an inhibition zone is in a range of about 1 mm to about 5 mm; and S indicates susceptibility and represents that the size of an inhibition zone is greater than about 5 mm.

Question: Which results are given for NCC[C@H](O)C(=O)N[C@@H]1C[C@H](N)[C@@H](O[C@H]2O[C@H](CN)[C@@H](O)[C@H](O)[C@H]2O)[C@H](O)[C@H]1O[C@H]1O[C@H](CO)[C@@H](O)[C@H](N)[C@H]1O [Amikacin]?
Answer: Antibiotic resistance (class): IS (IS indicates mediate resistance and represents that the size of an inhibition zone is in a range of about 1 mm to about 5 mm); Antibiotic resistance, size of inhibition zone: 1 mm

Question: How did the “Antibiotic resistance (class)” value turn out when CC1(C)S[C@@H]2[C@H](NC(=O)[C@H](N)c3ccccc3)C(=O)N2[C@H]1C(=O)O [Ampicillin] was run?
Answer: S (S indicates susceptibility and represents that the size of an inhibition zone is greater than about 5 mm)

Question: And the “Antibiotic resistance, size of inhibition zone” value?
Answer: 14 mm

Question: For CC[C@H](C)[C@H](N)C1=N[C@H](C(=O)N[C@@H](CC(C)C)C(=O)N[C@H](CCC(=O)O)C(=O)N[C@H](C(=O)N[C@H]2CCCCNC(=O)[C@H](CC(N)=O)NC(=O)[C@@H](CC(=O)O)NC(=O)[C@H](Cc3cnc[nH]3)NC(=O)[C@@H](Cc3ccccc3)NC(=O)[C@H]([C@@H](C)CC)NC(=O)[C@@H](CCCN)NC2=O)[C@@H](C)CC)CS1 [Bacitracin] ({Ileψ(thiazoline)Cys}-L[dE]IK[dOrn]I[dF]H[dD]N; lactam 4-C), which “Antibiotic resistance (class)” value is on record?
Answer: S (S indicates susceptibility and represents that the size of an inhibition zone is greater than about 5 mm)

Question: What about the “Antibiotic resistance, size of inhibition zone” value of the same molecule?
Answer: 7 mm

Question: Which results are given for O=C(N[C@H](CO)[C@H](O)c1ccc([N+](=O)[O-])cc1)C(Cl)Cl [Chloramphenicol]?
Answer: Antibiotic resistance (class): S (S indicates susceptibility and represents that the size of an inhibition zone is greater than about 5 mm); Antibiotic resistance, size of inhibition zone: 10 mm

Question: Which results are given for NC[C@H]1O[C@H](O[C@H]2[C@H](O)[C@@H](O[C@H]3O[C@H](CO)[C@@H](O)[C@H](N)[C@H]3O)[C@H](N)C[C@@H]2N)[C@H](O)[C@@H](O)[C@@H]1O [Kanamycin]?
Answer: Antibiotic resistance (class): R (R indicates resistance and represents that the size of an inhibition zone is about 0 mm); Antibiotic resistance, size of inhibition zone: 0 mm

Question: For CCC[C@@H]1C[C@@H](C(=O)N[C@@H]([C@H]2O[C@H](SC)[C@H](O)[C@@H](O)[C@H]2O)[C@@H](C)O)N(C)C1 [Lincomycin], which “Antibiotic resistance (class)” value is on record?
Answer: S (S indicates susceptibility and represents that the size of an inhibition zone is greater than about 5 mm)

Question: And the “Antibiotic resistance, size of inhibition zone” value?
Answer: 10 mm

Question: What does the source list for CO[C@@H]1[C@@H](OC(N)=O)[C@@H](O)[C@H](Oc2ccc3c(O)c(NC(=O)c4ccc(O)c(CC=C(C)C)c4)c(=O)oc3c2C)OC1(C)C [Novabiocin]?
Answer: Antibiotic resistance (class): S (S indicates susceptibility and represents that the size of an inhibition zone is greater than about 5 mm); Antibiotic resistance, size of inhibition zone: 7 mm

Question: What does the source list for Cc1onc(-c2ccccc2)c1C(=O)N[C@@H]1C(=O)N2[C@@H]1SC(C)(C)[C@@H]2C(=O)O [Oxacillin]?
Answer: Antibiotic resistance (class): IS (IS indicates mediate resistance and represents that the size of an inhibition zone is in a range of about 1 mm to about 5 mm); Antibiotic resistance, size of inhibition zone: 2 mm

Question: With CC1(C)S[C@@H]2[C@H](NC(=O)Cc3ccccc3)C(=O)N2[C@H]1C(=O)O [Penicillin-G] as the molecule, how does the “Antibiotic resistance (class)” value read?
Answer: IS (IS indicates mediate resistance and represents that the size of an inhibition zone is in a range of about 1 mm to about 5 mm)

Question: What about the “Antibiotic resistance, size of inhibition zone” value of the same molecule?
Answer: 5 mm

Question: Which results are given for CO[C@H]1/C=C/O[C@@]2(C)Oc3c(C)c(O)c4c(O)c(c(/C=N/N5CCN(C)CC5)c(O)c4c3C2=O)NC(=O)/C(C)=C\C=C\[C@H](C)[C@H](O)[C@@H](C)[C@@H](O)[C@@H](C)[C@H](OC(C)=O)[C@@H]1C [Rifampicin]?
Answer: Antibiotic resistance (class): S (S indicates susceptibility and represents that the size of an inhibition zone is greater than about 5 mm); Antibiotic resistance, size of inhibition zone: 7 mm

Question: How did the “Antibiotic resistance (class)” value turn out when [H]/N=C(/N)N[C@H]1[C@H](O)[C@@H](O)[C@H](O[C@@H]2O[C@@H](C)[C@](O)(C=O)[C@H]2O[C@@H]2O[C@@H](CO)[C@H](O)[C@@H](O)[C@@H]2NC)[C@@H](N/C(N)=N\[H])[C@@H]1O [Streptomycin] was run?
Answer: R (R indicates resistance and represents that the size of an inhibition zone is about 0 mm)

Question: And the “Antibiotic resistance, size of inhibition zone” value?
Answer: 0 mm

Question: With CN[C@H](CC(C)C)C(=O)N[C@H]1C(=O)N[C@@H](CC(N)=O)C(=O)N[C@H]2C(=O)N[C@H]3C(=O)N[C@H](C(=O)N[C@H](C(=O)O)c4cc(O)cc(O)c4-c4cc3ccc4O)[C@H](O)c3ccc(c(Cl)c3)Oc3cc2cc(c3O[C@@H]2O[C@H](CO)[C@@H](O)[C@H](O)[C@H]2O[C@H]2C[C@](C)(N)[C@H](O)[C@H](C)O2)Oc2ccc(cc2Cl)[C@H]1O [Vancomycin] as the molecule, how does the “Antibiotic resistance (class)” value read?
Answer: R (R indicates resistance and represents that the size of an inhibition zone is about 0 mm)

Question: And the “Antibiotic resistance, size of inhibition zone” value?
Answer: 0 mm

Question: What does the source list for Gentamycin?
Answer: Antibiotic resistance (class): IS (IS indicates mediate resistance and represents that the size of an inhibition zone is in a range of about 1 mm to about 5 mm); Antibiotic resistance, size of inhibition zone: 3 mm

Question: With Neomycin as the molecule, how does the “Antibiotic resistance (class)” value read?
Answer: IS (IS indicates mediate resistance and represents that the size of an inhibition zone is in a range of about 1 mm to about 5 mm)

Question: And the “Antibiotic resistance, size of inhibition zone” value?
Answer: 3 mm

Question: Polymyxin B was tested. Which “Antibiotic resistance (class)” value did it give?
Answer: R (R indicates resistance and represents that the size of an inhibition zone is about 0 mm)

Question: What about the “Antibiotic resistance, size of inhibition zone” value of the same molecule?
Answer: 0 mm
